Reference: patent publication US20140045873A1, “NOVEL MICROBIOCIDES” (SYNGENTA PARTICIPATIONS AG, priority 2010, published 2014)
Like-named read-outs stand apart in the source and are kept apart here.

Tests used:
[1] = tested on: Pyrenophora teres; conditions: in Hordeum vulgare, foliar, read-out: control of Pyrenophora teres (disease control compared to untreated)
[2] = tested on: Thanatephorus cucumeris (Rhizoctonia solani); conditions: read-out: control of Thanatephorus cucumeris (inhibition of growth, photometric)
[3] = tested on: Glomerella lagenarium (Colletotrichum lagenarium); test: Glomerella lagenarium (Colletotrichum lagenarium) / liquid culture (anthracnose); assay type: cell-based; conditions: Colletotrichum orbiculare; 200 ppm, liquid culture, PDB, 24° C., 3-4 days after application; read-out: control of Glomerella lagenarium (inhibition of growth, photometric)
[4] = tested on: Gaeumannomyces graminis; test: Gaeumannomyces graminis / liquid culture (take-all of cereals); assay type: cell-based; conditions: 200 ppm, liquid culture, PDB, 24° C., 4-5 days after application, read-out: control of Gaeumannomyces graminis (inhibition of growth, photometric)
[5] = tested on: Puccinia recondita f. sp. tritici; conditions: in Triticum aestivum, foliar, read-out: control of Puccinia recondita f. sp. tritici (percent disease control compared to untreated)
[6] = tested on: Botryotinia fuckeliana (Botrytis cinerea); test: Botryotinia fuckeliana (Botrytis cinerea) / liquid culture (gray mould); assay type: cell-based; conditions: Vogels broth, 24° C., 3-4 days after application, read-out: control of Botryotinia fuckeliana (inhibition of growth, photometric)
Source text: Botryotinia Fuckeliana (Botrytis cinerea)/Liquid Culture (Gray Mould): Conidia of the fungus from cryogenic storage were directly mixed into nutrient broth (Vogels broth). […].45

[7] = tested on: Phaeosphaeria nodorum (Septoria nodorum); conditions: Parastagonospora nodorum, in Triticum aestivum, foliar, read-out: control of Phaeosphaeria nodorum (percent disease control compared to untreated)
[8] = tested on: Pythium ultimum; test: Pythium ultimum / liquid culture (seedling damping off); assay type: cell-based; conditions: Globisporangium ultimum, potato dextrose broth, 24° C., 2-3 days after application, read-out: control of Pythium ultimum (inhibition of growth, photometric)
[9] = tested on: Monographella nivalis (Microdochium nivale); test: Monographella nivalis (Microdochium nivale) / liquid culture (foot rot cereals); assay type: cell-based; conditions: PDB, 24° C., 4-5 days after application, read-out: control of Monographella nivalis (inhibition of growth, photometric)
[10] = tested on: Mycosphaerella arachidis (Cercospora arachidicola); test: Mycosphaerella arachidis (Cercospora arachidicola) / liquid culture (early leaf spot); assay type: cell-based; conditions: 200 ppm, liquid culture, PDB, 24° C., 4-5 days after application, read-out: control of Mycosphaerella arachidis (inhibition of growth, photometric)
[11] = tested on: Puccinia recondita f. sp. tritici; conditions: in Triticum aestivum, foliar, read-out: control of Puccinia recondita f. sp. tritici (percent disease control compared to untreated); remark: listed apart in the source
[12] = tested on: Mycosphaerella graminicola (Septoria tritici); test: Mycosphaerella graminicola (Septoria tritici) / liquid culture (Septoria blotch); assay type: cell-based; conditions: Zymoseptoria tritici; 200 ppm, liquid culture, PDB, 24° C., 4-5 days after application; read-out: control of Mycosphaerella graminicola (inhibition of growth, photometric)
[13] = tested on: Alternaria solani; test: Alternaria solani / tomato / leaf disc (early blight); assay type: in vivo; conditions: foliar, tomato leaf disks cv. Baby, inoculated 2 days after application, assessed 5-7 days after application, read-out: control of Alternaria solani (percent disease control compared to untreated)
Experimental: The inoculated leaf disks were incubated at 23° C./21° C. […].44

COc1cc(C)nc(-c2ccc(OC)c(CCCO/N=C(\C)c3cccc(C)n3)n2)c1 [P.43]
≥ 80%: pest or weed control at 200 ppm [1] | inhibition at 200 ppm [2] | inhibition at 200 ppm [3] | inhibition at 200 ppm [4] | pest or weed control at 200 ppm [5] | inhibition at 200 ppm [6] | pest or weed control at 200 ppm [7] | inhibition at 200 ppm [8] | inhibition at 200 ppm [9] | inhibition at 200 ppm [10] | pest or weed control at 200 ppm [11] | inhibition at 200 ppm [12]

C/C(=N\OCCCc1cccc(-c2cc(Br)cc(C)n2)n1)c1cccc(C)n1 [P.18]
≥ 80%: pest or weed control at 200 ppm [1] | inhibition at 200 ppm [3] | inhibition at 200 ppm [4] | pest or weed control at 200 ppm [5] | pest or weed control at 200 ppm [7] | inhibition at 200 ppm [8] | inhibition at 200 ppm [9] | inhibition at 200 ppm [10] | pest or weed control at 200 ppm [11] | inhibition at 200 ppm [12]

C=CCOc1cc(C)nc(-c2cccc(CCCO/N=C(\C)c3cccc(C)n3)n2)c1 [P.25]
≥ 80%: pest or weed control at 200 ppm [1] | inhibition at 200 ppm [2] | inhibition at 200 ppm [3] | inhibition at 200 ppm [4] | pest or weed control at 200 ppm [5] | inhibition at 200 ppm [6] | pest or weed control at 200 ppm [7] | inhibition at 200 ppm [8] | inhibition at 200 ppm [9] | inhibition at 200 ppm [10] | pest or weed control at 200 ppm [11] | inhibition at 200 ppm [12]

C/C(=N\OCCCc1cccc(-c2cc(C)cc(C)n2)n1)c1cccc(C)n1 [P.19]
≥ 80%: pest or weed control at 200 ppm [1] | inhibition at 200 ppm [4] | pest or weed control at 200 ppm [5] | pest or weed control at 200 ppm [7] | inhibition at 200 ppm [8] | inhibition at 200 ppm [10] | pest or weed control at 200 ppm [11] | inhibition at 200 ppm [12]

C/C(=N\OCCCc1cccc(-c2cccc(C)n2)n1)c1cccc(C)n1 [P.21]
≥ 80%: pest or weed control at 200 ppm [1] | inhibition at 200 ppm [3] | inhibition at 200 ppm [4] | pest or weed control at 200 ppm [5] | inhibition at 200 ppm [6] | pest or weed control at 200 ppm [7] | inhibition at 200 ppm [8] | pest or weed control at 200 ppm [13] | inhibition at 200 ppm [10] | pest or weed control at 200 ppm [11] | inhibition at 200 ppm [12]

C/C(=N\OCCCc1ccnc(-c2cccc(C)n2)n1)c1cccc(C)n1 [P.45, E-1-(6-methyl-2-pyridyl)-N-[3-[2-(6-methyl-2-pyridyl)pyrimidin-4-yl]propoxy]ethanimine]
≥ 80%: pest or weed control at 200 ppm [1] | inhibition at 200 ppm [2] | inhibition at 200 ppm [3] | pest or weed control at 200 ppm [5] | inhibition at 200 ppm [6] | pest or weed control at 200 ppm [7] | inhibition at 200 ppm [8] | inhibition at 200 ppm [9] | inhibition at 200 ppm [10] | pest or weed control at 200 ppm [11] | inhibition at 200 ppm [12]

C=CCOc1cc(C)nc(-c2cccc(CCCO/N=C(\C)c3cc(C)cc(C)n3)n2)c1 [P.30]
≥ 80%: pest or weed control at 200 ppm [1] | inhibition at 200 ppm [2] | inhibition at 200 ppm [3] | inhibition at 200 ppm [4] | pest or weed control at 200 ppm [5] | inhibition at 200 ppm [6] | pest or weed control at 200 ppm [7] | inhibition at 200 ppm [9] | inhibition at 200 ppm [10] | pest or weed control at 200 ppm [11] | inhibition at 200 ppm [12]

C#CCOc1cc(C)nc(-c2cccc(CCCO/N=C(\C)c3cc(C)cc(C)n3)n2)c1 [P.29]
≥ 80%: pest or weed control at 200 ppm [1] | inhibition at 200 ppm [2] | inhibition at 200 ppm [3] | inhibition at 200 ppm [4] | pest or weed control at 200 ppm [5] | inhibition at 200 ppm [6] | pest or weed control at 200 ppm [7] | inhibition at 200 ppm [9] | pest or weed control at 200 ppm [13] | inhibition at 200 ppm [10] | pest or weed control at 200 ppm [11] | inhibition at 200 ppm [12]

CON=C(C)c1ccc(-c2cccc(CCCO/N=C(\C)c3cccc(C)n3)n2)nc1C [P.22]
≥ 80%: pest or weed control at 200 ppm [1] | inhibition at 200 ppm [3] | inhibition at 200 ppm [4] | pest or weed control at 200 ppm [5] | inhibition at 200 ppm [6] | pest or weed control at 200 ppm [7] | pest or weed control at 200 ppm [13] | inhibition at 200 ppm [10] | pest or weed control at 200 ppm [11] | inhibition at 200 ppm [12]

C/C(=N\OCCCc1cccc(-c2nc(C)cc(C)n2)n1)c1cccc(C)n1 [P.05]
≥ 80%: pest or weed control at 200 ppm [1] | inhibition at 200 ppm [2] | inhibition at 200 ppm [3] | inhibition at 200 ppm [4] | pest or weed control at 200 ppm [5] | pest or weed control at 200 ppm [7] | inhibition at 200 ppm [8] | inhibition at 200 ppm [10] | pest or weed control at 200 ppm [11] | inhibition at 200 ppm [12]

CCc1ccc(C)c(-c2cccc(CCCO/N=C(\C)c3cccc(C)n3)n2)n1 [P.42]
≥ 80%: pest or weed control at 200 ppm [1] | inhibition at 200 ppm [2] | inhibition at 200 ppm [3] | inhibition at 200 ppm [4] | pest or weed control at 200 ppm [5] | inhibition at 200 ppm [6] | pest or weed control at 200 ppm [7] | inhibition at 200 ppm [9] | pest or weed control at 200 ppm [13] | inhibition at 200 ppm [10] | pest or weed control at 200 ppm [11] | inhibition at 200 ppm [12]

CCOc1cc(C)nc(-c2cccc(CCCO/N=C(\C)c3cc(C)cc(C)n3)n2)c1 [P.28]
≥ 80%: pest or weed control at 200 ppm [1] | inhibition at 200 ppm [2] | inhibition at 200 ppm [3] | inhibition at 200 ppm [4] | pest or weed control at 200 ppm [5] | inhibition at 200 ppm [6] | pest or weed control at 200 ppm [7] | inhibition at 200 ppm [8] | inhibition at 200 ppm [9] | inhibition at 200 ppm [10] | pest or weed control at 200 ppm [11] | inhibition at 200 ppm [12]

CCCOc1cc(C)nc(-c2cccc(CCCO/N=C(\C)c3cc(C)cc(C)n3)n2)c1 [P.31]
≥ 80%: pest or weed control at 200 ppm [1] | inhibition at 200 ppm [2] | inhibition at 200 ppm [3] | inhibition at 200 ppm [4] | pest or weed control at 200 ppm [5] | inhibition at 200 ppm [6] | pest or weed control at 200 ppm [7] | inhibition at 200 ppm [9] | inhibition at 200 ppm [10] | pest or weed control at 200 ppm [11] | inhibition at 200 ppm [12]

CCc1cc(SC)c(C)c(-c2cccc(CCCO/N=C(\C)c3cccc(C)n3)n2)n1 [P.40]
≥ 80%: pest or weed control at 200 ppm [1] | inhibition at 200 ppm [2] | inhibition at 200 ppm [3] | inhibition at 200 ppm [4] | pest or weed control at 200 ppm [5] | inhibition at 200 ppm [6] | pest or weed control at 200 ppm [7] | inhibition at 200 ppm [9] | inhibition at 200 ppm [10] | pest or weed control at 200 ppm [11] | inhibition at 200 ppm [12]

COc1cc(C)nc(-c2cccc(CCCO/N=C(\C)c3cc(C)cc(C)n3)n2)c1 [P.13]
≥ 80%: pest or weed control at 200 ppm [1] | inhibition at 200 ppm [3] | inhibition at 200 ppm [4] | pest or weed control at 200 ppm [5] | inhibition at 200 ppm [6] | pest or weed control at 200 ppm [7] | inhibition at 200 ppm [8] | inhibition at 200 ppm [9] | pest or weed control at 200 ppm [13] | inhibition at 200 ppm [10] | pest or weed control at 200 ppm [11] | inhibition at 200 ppm [12]

CCCOc1cc(C)nc(-c2cccc(CCCO/N=C(\C)c3cccc(C)n3)n2)c1 [P.26]
≥ 80%: pest or weed control at 200 ppm [1] | inhibition at 200 ppm [2] | inhibition at 200 ppm [3] | inhibition at 200 ppm [4] | pest or weed control at 200 ppm [5] | inhibition at 200 ppm [6] | pest or weed control at 200 ppm [7] | inhibition at 200 ppm [9] | inhibition at 200 ppm [10] | pest or weed control at 200 ppm [11] | inhibition at 200 ppm [12]
